Measured values as given in ChEMBL document CHEMBL1138594, “Identification of an N-oxide pyridine GW4064 analog as a potent FXR agonist” (Bioorg Med Chem Lett, 2009).

Legend:
[1] = biological target: T1, Bile acid receptor (Mus musculus, UniProt Q60641); assay: Agonist activity at mouse chimeric FXR assessed as receptor transactivation by luciferase transcriptional reporter gene assay; assay type: functional
T1 sequence (Q60641 whole entry): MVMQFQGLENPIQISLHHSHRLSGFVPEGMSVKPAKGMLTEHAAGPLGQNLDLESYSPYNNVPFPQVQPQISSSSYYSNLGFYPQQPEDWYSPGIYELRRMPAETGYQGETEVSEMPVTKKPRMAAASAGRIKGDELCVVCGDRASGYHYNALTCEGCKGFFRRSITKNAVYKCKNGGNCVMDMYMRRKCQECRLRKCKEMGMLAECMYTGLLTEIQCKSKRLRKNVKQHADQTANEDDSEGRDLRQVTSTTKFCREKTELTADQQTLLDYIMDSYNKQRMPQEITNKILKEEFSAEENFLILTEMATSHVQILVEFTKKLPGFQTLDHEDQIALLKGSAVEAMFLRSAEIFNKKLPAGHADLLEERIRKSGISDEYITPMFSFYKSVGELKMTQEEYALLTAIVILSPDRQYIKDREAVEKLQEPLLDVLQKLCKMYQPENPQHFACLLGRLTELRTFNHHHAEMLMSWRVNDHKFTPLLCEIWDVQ

[2] = biological target: T2, Bile acid receptor (Homo sapiens) (UniProt Q96RI1); assay: Agonist activity at chimeric FXR assessed as receptor transactivation by luciferase transcriptional reporter gene assay relative to GW-4064; assay type: functional; set-up: concentration or dose not given beside the values
T2 sequence (whole entry): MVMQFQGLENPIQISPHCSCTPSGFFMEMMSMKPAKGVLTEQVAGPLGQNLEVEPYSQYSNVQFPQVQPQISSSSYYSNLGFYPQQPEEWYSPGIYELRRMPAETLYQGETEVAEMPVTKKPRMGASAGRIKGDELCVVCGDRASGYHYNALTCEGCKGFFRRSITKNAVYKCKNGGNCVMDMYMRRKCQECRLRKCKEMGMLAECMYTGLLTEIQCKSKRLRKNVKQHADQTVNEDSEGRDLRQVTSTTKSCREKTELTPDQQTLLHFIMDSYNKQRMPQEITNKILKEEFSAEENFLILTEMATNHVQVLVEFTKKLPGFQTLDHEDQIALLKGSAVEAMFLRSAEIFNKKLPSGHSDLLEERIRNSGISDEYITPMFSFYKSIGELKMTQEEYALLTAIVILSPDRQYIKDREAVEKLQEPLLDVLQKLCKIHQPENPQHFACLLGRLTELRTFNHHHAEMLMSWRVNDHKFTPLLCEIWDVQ

[3] = biological target: T3, Bile acid receptor (Mus musculus) (UniProt Q60641); assay: Agonist activity at mouse chimeric FXR assessed as receptor transactivation by luciferase transcriptional reporter gene assay relative to GW-4064; assay type: functional; set-up: concentration or dose not given beside the values
T3 sequence (whole entry): T1 sequence (Q60641 whole entry)

[4] = biological target: T4, Bile acid receptor (Homo sapiens, UniProt Q96RI1); assay: Displacement of radioligand from human FXR by scintillation proximity assay
T4 sequence (Q96RI1 whole entry): T2 sequence (whole entry)

[5] = biological target: T4, Bile acid receptor
[6] = Permeability by PAMPA method; assay type: ADME; settings: read-out: permeability

Structure (SMILES)	EC50 [1]	Activity [2]	Activity [3]	IC50 [4]	EC50 [5]	Papp [6]
Cc1cc(OCc2c(-c3c(Cl)cn(C)c(=O)c3Cl)noc2C(C)C)ccc1-c1ccc2c(C(=O)O)cn(C)c2c1	11 µM	9%	15%	2.75 µM	12 µM	–
CC(C)c1onc(-c2c(Cl)cncc2Cl)c1COc1ccc(/C=C/c2cccc(C(=O)O)c2)c(Cl)c1	11 µM	59.4%	48%	0.69 µM	9 µM	0.09 ×10⁻⁶ cm/s
CC(C)c1onc(-c2ccc(S(C)(=O)=O)cc2Cl)c1COc1ccc(/C=C/c2cccc(C(=O)O)c2)c(Cl)c1	> 10 µM	0%	0%	0.17 µM	> 10 µM	–
CC(C)c1onc(-c2c(Cl)cccc2Cl)c1COc1ccc(/C=C/c2cccc(C(=O)O)c2)c(Cl)c1	2 µM	100%	–	–	–	–
COc1ccccc1-c1noc(C(C)C)c1COc1ccc(/C=C/c2cccc(C(=O)O)c2)c(Cl)c1	10 µM	54.3%	19.8%	0.25 µM	10 µM	–

Further lines, results first:

EC50 [1]	Activity [2]	Activity [3]	IC50 [4]	EC50 [5]	Papp [6]	Structure (SMILES)
7 µM	58.5%	63.3%	1.1 µM	5 µM	–	Cc1cc(OCc2c(-c3cc[nH]c(=O)c3Cl)noc2C(C)C)ccc1-c1ccc2c(C(=O)O)cn(C)c2c1
4 µM	27%	39%	0.235 µM	4 µM	–	Cc1cc(OCc2c(-c3c(Cl)ccc(=O)n3C)noc2C(C)C)ccc1-c1ccc2c(C(=O)O)cn(C)c2c1
18 µM	0%	8%	4.13 µM	–	–	Cc1cc(OCc2c(-c3[nH]c(=O)ccc3Cl)noc2C(C)C)ccc1-c1ccc2c(C(=O)O)cn(C)c2c1
3 µM	38%	71%	–	0.9 µM	0.19 ×10⁻⁶ cm/s	Cc1cc(OCc2c(-c3c(Cl)cncc3Cl)noc2C(C)C)ccc1-c1ccc2c(C(=O)O)cn(C)c2c1
0.2 µM	53.7%	88.5%	0.045 µM	0.102 µM	587 ×10⁻⁶ cm/s	Cc1cc(OCc2c(-c3c(Cl)c[n+]([O-])cc3Cl)noc2C(C)C)ccc1-c1ccc2c(C(=O)O)cn(C)c2c1
6 µM	12%	17%	1.72 µM	7 µM	–	Cc1cc(OCc2c(-c3ccn(C)c(=O)c3Cl)noc2C(C)C)ccc1-c1ccc2c(C(=O)O)cn(C)c2c1
2 µM	23%	12%	0.31 µM	2 µM	0.7 ×10⁻⁶ cm/s	COc1ccc(Cl)c(-c2noc(C(C)C)c2COc2ccc(-c3ccc4c(C(=O)O)cn(C)c4c3)c(C)c2)n1
